Test results from patent US20190345558A1, “METHOD FOR DETERMINING SENSITIVITY TO A CDK4/6 INHIBITOR” (UNIVERSITÉ LIBRE DE BRUXELLES, priority 2016, published 2019).

Columns and labels:
[1] = tested on: pRb phosphorylations; assay: pRb phosphorylation in HCC1806 cells; format: cell-based, Human; settings: not shown
Experimental: Equal amounts of whole cell extract proteins were separated according to molecular mass and immunodetected. CDK4-containing complexes were co-immunoprecipited as described (Paternot et al., 2003, J Biol Chem, 278, 26533-40; Bockstaele et al., 2006, Mol Cell Biol, 26, 5070-85). For 2D gel electrophoresis, cells were lysed in a buffer containing 7 M urea and 2 M thiourea. Frozen tumor slides were solubilised in 30 mM Tris cold buffer pH 8.5 containing 7 M urea, 2 M thiourea and 4% CHAPS with continuous vortexing until defreezing and kept under agitation during 20 min. After centrifugation at 14000 rpm for 10 min at 4° C., proteins were quantified. An equal volume of 2-D-sample buffer (7 M urea, 2 M thiourea, 2% CHAPS, 0.4% 3-10 Pharmalytes and 0.4% DTT) was added to samples normalized at 150 μg proteins. Proteins were separated by isoelectric focusing on immobilized linear pH gradient strips (pH 5 to 8, Biorad) before being separated by SDS-PAGE and immunoblotted as described (Bockstaele et al., 2006, Mol Cell Biol, 26, 5070-85).

[2] = tested on: BT20; assay: BrdU DNA incorporation assay
Experimental: (§1) One hour before fixation with methanol, 100 μM 5-Bromo-2′-deoxyuridine (BrdU, Sigma-Aldrich) and 4 μM 5-Fluoro-2′-deoxyuridine (FldU, Sigma-Aldrich) were added to the cells. Immuno-detection of DNA incorporated BrdU was performed. 4′,6-Diamidino-2-phenylindole, dilactate (DAPI, Thermo Fisher Scientific) solution (1 μg/ml) was used as nuclear counterstain and round coverslips were mounted in each well of the 96 well plate with ProLong Gold Antifade Mountant (Thermo Fisher Scientific). […] Culture plates were imaged with a Zeiss Axio Observer.Z1 wide-field microscope equipped with a 10/0.3×EC Plan Neofluar objective and an AxioCam HSm camera. For each well, a grid of 3×3 fields (each of them 660 μm×492 μm) was automatically defined using the Mark&Find option of the AxioVision software. […] Exposure times were chosen so as to maximize the signal while avoiding saturation. They were kept constant through all images within one experiment. A software-based autofocus was performed on the DAPI channel, using a general offset of 8-10 μm. A 10 μm offset was added for the A488 channel. Images were analyzed semi-automatically with a custom-made ImageJ macro. […] The total number of nuclei and the area that they represent were recorded to compute the BrdU-positive to total nuclei ratios. […] Images with less than 10 labeled nuclei were counted manually with the Image J cell counter plugin.

[3] = tested on: BT474; assay: BrdU DNA incorporation assay
Experimental: as §1

[4] = tested on: BT549; assay: BrdU DNA incorporation assay
Experimental: as §1

[5] = tested on: HCC1500; assay: BrdU DNA incorporation assay
Experimental: as §1

[6] = tested on: HCC1569; assay: BrdU DNA incorporation assay
Experimental: as §1

[7] = tested on: HCC1806; assay: BrdU DNA incorporation assay
Experimental: One hour before fixation with methanol, 100 μM 5-Bromo-2′-deoxyuridine (BrdU, Sigma-Aldrich) and 4 μM 5-Fluoro-2′-deoxyuridine (FldU, Sigma-Aldrich) were added to the cells. Immuno-detection of DNA incorporated BrdU was performed. 4′,6-Diamidino-2-phenylindole, dilactate (DAPI, Thermo Fisher Scientific) solution (1 μg/ml) was used as nuclear counterstain and round coverslips were mounted in each well of the 96 well plate with ProLong Gold Antifade Mountant (Thermo Fisher Scientific). […] Culture plates were imaged with a Zeiss Axio Observer.Z1 wide-field microscope equipped with a 10/0.3×EC Plan Neofluar objective and an AxioCam HSm camera. For each well, a grid of 3×3 fields (each of them 660 μm×492 μm) was automatically defined using the Mark&Find option of the AxioVision software. […] Exposure times were chosen so as to maximize the signal while avoiding saturation. They were kept constant through all images within one experiment. A software-based autofocus was performed on the DAPI channel, using a general offset of 8-10 μm. A 10 μm offset was added for the A488 channel. Images were analyzed semi-automatically with a custom-made ImageJ macro. For each field of view, two masks were created, representing the areas positive for the DAPI or for both the DAPI and the BrdU stainings, respectively. Nuclei were then segmented within these masks using the “Analyze particles” function. The total number of nuclei and the area that they represent were recorded to compute the BrdU-positive to total nuclei ratios. The segmentation of the nuclei was verified visually and only values extracted from correctly segmented images were selected for further analysis. […] Each processed image was therefore systematically inspected to correct low counts and remove image with staining artefacts from the analysis. Images with less than 10 labeled nuclei were counted manually with the Image J cell counter plugin.

[8] = tested on: HCC1937; assay: BrdU DNA incorporation assay
Experimental: as §1

[9] = tested on: HCC1954; assay: BrdU DNA incorporation assay
Experimental: as §1

[10] = tested on: HCC202; assay: BrdU DNA incorporation assay; settings: Homo sapiens, HCC202, 24 h
Experimental: as §1

[11] = tested on: HCC38; assay: BrdU DNA incorporation assay
Experimental: as §1

[12] = tested on: HCC70; assay: BrdU DNA incorporation assay
Experimental: as §1

[13] = tested on: MCF7; assay: BrdU DNA incorporation assay
Experimental: as §1

[14] = tested on: MDAMB134VI; assay: BrdU DNA incorporation assay
Experimental: as §1

[15] = tested on: MDAMB231; assay: BrdU DNA incorporation assay
Experimental: as §1

[16] = tested on: MDAMB361; assay: BrdU DNA incorporation assay
Experimental: as §1

[17] = tested on: MDAMB436; assay: BrdU DNA incorporation assay
Experimental: as §1

[18] = tested on: MDAMB468; assay: BrdU DNA incorporation assay
Experimental: as §1

[19] = tested on: SKBR3; assay: BrdU DNA incorporation assay
Experimental: as §1

[20] = tested on: T47D; assay: BrdU DNA incorporation assay
Experimental: as §1

[21] = tested on: ZR751; assay: BrdU DNA incorporation assay
Experimental: as §1

[22] = tested on: breast cancer cell lines; assay: BrdU incorporation assay, panel of 20 cell lines
Experimental: as §1

## CC(=O)c1c(C)c2cnc(Nc3ccc(N4CCNCC4)cn3)nc2n(C2CCCC2)c1=O [PD0332991, palbociclib]
[1]
  inhibition of pRb phosphorylations in response to PD0332991: marked inhibition
[2]; BT20, basal-like
  sensitivity of the cell line to PD0332991: sensitive
[2]; Homo sapiens, BT-20, 24 h
  IC50: 3 nM
[3]; BT474, HER2+
  sensitivity of the cell line to PD0332991: sensitive
[3]; Homo sapiens, BT-474, 24 h
  IC50: 15 nM
[4]; BT459 as printed, basal-like
  sensitivity of the cell line to PD0332991: insensitive
[4]; Homo sapiens, BT-549, 24 h
  IC50: > 1000 nM
[5]; HCC1500, basal-like
  sensitivity of the cell line to PD0332991: sensitive
[5]; Homo sapiens, HCC1500, 24 h
  IC50: 10 nM
[6]; HCC1569
  sensitivity of the cell line to palbociclib: insensitive
[6]; Homo sapiens, HCC1569, 24 h
  IC50: > 1000 nM
[7]; HCC1806 cells, 1 μM PD0332991 (FIG. 1C), average of 5 independent experiments
  proportion of cells in S phase measured with the BrDU assay: 80 % of the control value
[7]; Homo sapiens, HCC1806, 24 h
  IC50: 10 nM
[8]; HCC1937, basal-like
  sensitivity of the cell line to PD0332991: insensitive
[8]; Homo sapiens, HCC1937, 24 h
  IC50: > 1000 nM
[9]; HCC1954, HER2+
  sensitivity of the cell line to PD0332991: sensitive
[9]; Homo sapiens, HCC1954, 24 h
  IC50: 25 nM
[10]
  IC50: 25 nM
[11]; HCC38, basal-like
  sensitivity of the cell line to PD0332991: sensitive
[11]; Homo sapiens, HCC38, 24 h
  IC50: 15 nM
[12]; HCC70, basal-like
  sensitivity of the cell line to PD0332991: insensitive
[12]; Homo sapiens, HCC70, 24 h
  IC50: > 1000 nM
[13]; Homo sapiens, MCF7, 24 h
  IC50: 15 nM
[13]; MCF7, luminal
  sensitivity of the cell line to PD0332991: sensitive
[14]; Homo sapiens, MDA-MB-134-VI, 24 h
  IC50: 3 nM
[14]; MDAMB134IV as printed, luminal
  sensitivity of the cell line to PD0332991: sensitive
[15]; Homo sapiens, MDA-MB-231, 24 h
  IC50: 15 nM
[15]; MDAMB231, basal-like
  sensitivity of the cell line to PD0332991: sensitive
[16]; Homo sapiens, MDA-MB-361, 24 h
  IC50: 10 nM
[16]; MDAMB361, HER2+
  sensitivity of the cell line to PD0332991: sensitive
[17]; Homo sapiens, MDA-MB-436, 24 h
  IC50: > 1000 nM
[17]; MDAMB436, basal-like
  sensitivity of the cell line to PD0332991: insensitive
[18]; Homo sapiens, MDA-MB-468, 24 h
  IC50: > 1000 nM
[18]; MDAMB468, basal-like
  sensitivity of the cell line to PD0332991: insensitive
[19]; Homo sapiens, SK-BR-3, 24 h
  IC50: 15 nM
[19]; SKBR3, HER2+
  sensitivity of the cell line to PD0332991: sensitive
[20]; Homo sapiens, 24 h
  IC50: 15 nM
[20]; luminal
  sensitivity of the cell line to PD0332991: sensitive
[21]; Homo sapiens, ZR-75-1, 24 h
  IC50: 15 nM
[21]; ZR75-1
  sensitivity of the cell line to PD0332991: sensitive
[22]; BrdU incorporation
  cell lines in which the proportion of DNA replicating cells was reduced in a concentration-dependent way: 13 out of these 20 cell lines
[22]; Homo sapiens, read-out: IC50s with the BrdU incorporation assay
  IC50: 5 to 50 nM

## CC[C@H](CO)Nc1nc(NCc2ccccc2)c2ncn(C(C)C)c2n1 [Roscovitine]
[7]; 2.5, 5, 10 μM Roscovitine with increasing concentrations of PD0332991, BrdU (FIG. 5)
  effect of Roscovitine on the sensitivity of HCC1806 cells to PD0332991: dose-dependently increased the sensitivity
